Data: US10131652B2, “Pyrimidinyloxy benzene derivatives as herbicides” (E. I. DU PONT DE NEMOURS AND COMPANY, priority 2014, dated 2018)

What was measured:
Experiment in all cases: Test D pre-/postemergence plant response
Format in all cases: in vivo
[1] = tested on: johnsongrass (Sorghum halepense); settings: Sorghum halepense, pre-emergence, Preemergence, scale 0 to 100 (0 no effect, 100 complete control), read-out: Plant response rating, Johnsongrass
From the text: (§1) Seeds of plant species selected from blackgrass (Alopecurus myosuroides), Italian ryegrass (Lolium multiflorum), winter wheat (Triticum aestivum), galium (catchweed bedstraw, Galium aparine), corn (Zea mays), large (Lg) crabgrass (Digitaria sanguinalis), giant foxtail (Setaria faberii), johnsongrass (Sorghum halepense), lambsquarters (Chenopodium album), morningglory (Ipomoea coccinea), yellow nutsedge (Cyperus esculentus), pigweed (Amaranthus retroflexus), ragweed (common ragweed, Ambrosia elatior), soybean (Glycine max), bamyardgrass (Echinochloa crus-galli), oilseed rape (Brassica napus), waterhemp (common waterhemp, Amaranthus rudis), and velvetleaf (Abutilon theophrasti) were planted into a blend of loam soil and sand and treated preemergence with test chemicals formulated in a non-phytotoxic solvent mixture which included a surfactant. At the same time, plants selected from these crop and weed species and also kochia (Kochia scoparia), wild oat (Avena fatua), and chickweed (common chickweed, Stellaria media) were planted in pots containing Redi-Earth® planting medium (Scotts Company, 14111 Scottslawn Road, Marysville, Ohio 43041) comprising spaghnum peat moss, vermiculite, wetting agent and starter nutrients and treated with postemergence applications of test chemicals formulated in the same manner. Plants ranged in height from 2 to 18 cm (1- to 4-leaf stage) for postemergence treatments. Treated plants and controls were maintained in a greenhouse for 13 to 15 days, after which time all species were compared to controls and visually evaluated. Plant response ratings, summarized in Table D, are based on a scale of 0 to 100 where 0 is no effect and 100 is complete control. A dash (-) response means no test result.

[2] = tested on: corn (Zea mays); settings: Zea mays, pre-emergence, Preemergence, scale 0 to 100 (0 no effect, 100 complete control)
From the text: as §1

[3] = tested on: large (Lg) crabgrass (Digitaria sanguinalis); settings: Digitaria sanguinalis, pre-emergence, Preemergence, scale 0 to 100 (0 no effect, 100 complete control), read-out: Plant response rating, Crabgrass, Large
From the text: as §1

[4] = tested on: soybean (Glycine max); settings: Glycine max, pre-emergence, Preemergence, scale 0 to 100 (0 no effect, 100 complete control), read-out: Plant response rating, Soybean
From the text: as §1

[5] = tested on: barnyardgrass (Echinochloa crus-galli); settings: Echinochloa crus-galli, pre-emergence, Preemergence
From the text: as §1

[6] = tested on: oilseed rape (Brassica napus); settings: Brassica napus, pre-emergence, Preemergence, scale 0 to 100 (0 no effect, 100 complete control), read-out: Plant response rating, Oilseed Rape
From the text: as §1

[7] = tested on: Italian ryegrass (Lolium multiflorum); settings: Lolium multiflorum, pre-emergence, Preemergence, scale 0 to 100 (0 no effect, 100 complete control), read-out: Plant response rating, Ryegrass, Italian
From the text: as §1

[8] = tested on: blackgrass (Alopecurus myosuroides); settings: Alopecurus myosuroides, pre-emergence, Preemergence, scale 0 to 100 (0 no effect, 100 complete control), read-out: Plant response rating, Blackgrass
From the text: as §1

[9] = tested on: galium (catchweed bedstraw, Galium aparine); settings: Galium, pre-emergence, Preemergence, scale 0 to 100 (0 no effect, 100 complete control), read-out: Plant response rating, Galium
From the text: as §1

[10] = tested on: waterhemp (common waterhemp, Amaranthus rudis); settings: Amaranthus tuberculatus, pre-emergence, Preemergence, scale 0 to 100 (0 no effect, 100 complete control), read-out: Plant response rating, Waterhemp
From the text: as §1

[11] = tested on: giant foxtail (Setaria faberii); settings: Setaria faberi, pre-emergence, Preemergence, scale 0 to 100 (0 no effect, 100 complete control), read-out: Plant response rating, Foxtail, Giant
From the text: as §1

[12] = tested on: velvetleaf (Abutilon theophrasti); settings: Abutilon theophrasti, pre-emergence, Preemergence, scale 0 to 100 (0 no effect, 100 complete control), read-out: Plant response rating, Velvetleaf
From the text: as §1

[13] = tested on: winter wheat (Triticum aestivum); settings: Triticum aestivum, pre-emergence, Preemergence, scale 0 to 100 (0 no effect, 100 complete control), read-out: Plant response rating, Wheat
From the text: as §1

[14] = tested on: morningglory (Ipomoea coccinea); settings: Ipomoea, pre-emergence, Preemergence, scale 0 to 100 (0 no effect, 100 complete control), read-out: Plant response rating, Morningglory
From the text: as §1

[15] = tested on: lambsquarters (Chenopodium album); settings: Chenopodium album, pre-emergence, Preemergence, scale 0 to 100 (0 no effect, 100 complete control), read-out: Plant response rating, Lambsquarters
From the text: as §1

[16] = tested on: yellow nutsedge (Cyperus esculentus); settings: Cyperus, pre-emergence, Preemergence, scale 0 to 100 (0 no effect, 100 complete control), read-out: Plant response rating, Nutsedge, Yellow
From the text: as §1

[17] = tested on: pigweed (Amaranthus retroflexus); settings: Amaranthus retroflexus, pre-emergence, Preemergence, scale 0 to 100 (0 no effect, 100 complete control), read-out: Plant response rating, Pigweed
From the text: as §1

[18] = tested on: ragweed (common ragweed, Ambrosia elatior); settings: Ambrosia artemisiifolia, pre-emergence, Preemergence, scale 0 to 100 (0 no effect, 100 complete control), read-out: Plant response rating, Ragweed
From the text: as §1

FCc1cc(-c2ccccc2Oc2ncc(Cl)cn2)no1 [Compound 32, 5-chloro-2-[2-[5-(fluoromethyl)-3-isoxazolyl]phenoxy]pyrimidine]
pest or weed control at 8 g/ha ([1]; 8 g ai/ha): 0%
pest or weed control at 16 g/ha ([1]; 16 g ai/ha): 45%
pest or weed control at 31 g/ha ([1]; 31 g ai/ha): 75%
pest or weed control at 62 g/ha ([1]; 62 g ai/ha): 85%
Corn plant response rating (crop injury, 0 = no effect, 100 = complete kill) at 8 g/ha ([2]; 8 g ai/ha): 0%
Corn plant response rating (crop injury, 0 = no effect, 100 = complete kill) at 16 g/ha ([2]; 16 g ai/ha): 0%
Corn plant response rating (crop injury, 0 = no effect, 100 = complete kill) at 31 g/ha ([2]; 31 g ai/ha): 0%
Corn plant response rating (crop injury, 0 = no effect, 100 = complete kill) at 62 g/ha ([2]; 62 g ai/ha): 0%
pest or weed control at 8 g/ha ([3]; 8 g ai/ha): 100%
pest or weed control at 16 g/ha ([3]; 16 g ai/ha): 90%
pest or weed control at 31 g/ha ([3]; 31 g ai/ha): 98%
pest or weed control at 62 g/ha ([3]; 62 g ai/ha): 100%
plant injury at 8 g/ha ([4]; 8 g ai/ha): 10%
plant injury at 16 g/ha ([4]; 16 g ai/ha): 15%
plant injury at 31 g/ha ([4]; 31 g ai/ha): 25%
plant injury at 62 g/ha ([4]; 62 g ai/ha): 65%
pest or weed control at 62 g/ha ([5]; 62 g ai/ha, read-out: Plant response rating (scale 0 to 100), Barnyardgrass): 98%
pest or weed control at 8 g/ha ([5]; 8 g ai/ha, scale 0 to 100 (0 no effect, 100 complete control), read-out: Plant response rating, Barnyardgrass): 0%
pest or weed control at 16 g/ha ([5]; 16 g ai/ha, scale 0 to 100 (0 no effect, 100 complete control), read-out: Plant response rating, Barnyardgrass): 5%
pest or weed control at 31 g/ha ([5]; 31 g ai/ha, scale 0 to 100 (0 no effect, 100 complete control), read-out: Plant response rating, Barnyardgrass): 55%
plant injury at 8 g/ha ([6]; 8 g ai/ha): 50%
plant injury at 16 g/ha ([6]; 16 g ai/ha): 80%
plant injury at 31 g/ha ([6]; 31 g ai/ha): 100%
plant injury at 62 g/ha ([6]; 62 g ai/ha): 100%
pest or weed control at 8 g/ha ([7]; 8 g ai/ha): 0%
pest or weed control at 16 g/ha ([7]; 16 g ai/ha): 0%
pest or weed control at 31 g/ha ([7]; 31 g ai/ha): 0%
pest or weed control at 62 g/ha ([7]; 62 g ai/ha): 10%
pest or weed control at 8 g/ha ([8]; 8 g ai/ha): 0%
pest or weed control at 16 g/ha ([8]; 16 g ai/ha): 0%
pest or weed control at 31 g/ha ([8]; 31 g ai/ha): 30%
pest or weed control at 62 g/ha ([8]; 62 g ai/ha): 35%
pest or weed control at 8 g/ha ([9]; 8 g ai/ha): 0%
pest or weed control at 16 g/ha ([9]; 16 g ai/ha): 25%
pest or weed control at 31 g/ha ([9]; 31 g ai/ha): 65%
pest or weed control at 62 g/ha ([9]; 62 g ai/ha): 75%
pest or weed control at 8 g/ha ([10]; 8 g ai/ha): 100%
pest or weed control at 16 g/ha ([10]; 16 g ai/ha): 100%
pest or weed control at 31 g/ha ([10]; 31 g ai/ha): 100%
pest or weed control at 62 g/ha ([10]; 62 g ai/ha): 98%
pest or weed control at 8 g/ha ([11]; 8 g ai/ha): 0%
pest or weed control at 16 g/ha ([11]; 16 g ai/ha): 35%
pest or weed control at 31 g/ha ([11]; 31 g ai/ha): 85%
pest or weed control at 62 g/ha ([11]; 62 g ai/ha): 95%
pest or weed control at 8 g/ha ([12]; 8 g ai/ha): 5%
pest or weed control at 16 g/ha ([12]; 16 g ai/ha): 40%
pest or weed control at 31 g/ha ([12]; 31 g ai/ha): 55%
pest or weed control at 62 g/ha ([12]; 62 g ai/ha): 85%
plant injury at 8 g/ha ([13]; 8 g ai/ha): 0%
plant injury at 16 g/ha ([13]; 16 g ai/ha): 0%
plant injury at 31 g/ha ([13]; 31 g ai/ha): 0%
plant injury at 62 g/ha ([13]; 62 g ai/ha): 5%
pest or weed control at 8 g/ha ([14]; 8 g ai/ha): 0%
pest or weed control at 16 g/ha ([14]; 16 g ai/ha): 0%
pest or weed control at 31 g/ha ([14]; 31 g ai/ha): 5%
pest or weed control at 62 g/ha ([14]; 62 g ai/ha): 0%
pest or weed control at 8 g/ha ([15]; 8 g ai/ha): 95%
pest or weed control at 16 g/ha ([15]; 16 g ai/ha): 95%
pest or weed control at 31 g/ha ([15]; 31 g ai/ha): 98%
pest or weed control at 62 g/ha ([15]; 62 g ai/ha): 100%
pest or weed control at 8 g/ha ([16]; 8 g ai/ha): 60%
pest or weed control at 16 g/ha ([16]; 16 g ai/ha): 65%
pest or weed control at 31 g/ha ([16]; 31 g ai/ha): 0%
pest or weed control at 62 g/ha ([16]; 62 g ai/ha): 25%
pest or weed control at 8 g/ha ([17]; 8 g ai/ha): 100%
pest or weed control at 16 g/ha ([17]; 16 g ai/ha): 100%
pest or weed control at 31 g/ha ([17]; 31 g ai/ha): 98%
pest or weed control at 62 g/ha ([17]; 62 g ai/ha): 100%
pest or weed control at 8 g/ha ([18]; 8 g ai/ha): 75%
pest or weed control at 16 g/ha ([18]; 16 g ai/ha): 60%
pest or weed control at 31 g/ha ([18]; 31 g ai/ha): 75%
pest or weed control at 62 g/ha ([18]; 62 g ai/ha): 70%
